Patent publication US20110071180A1, “SUB-TYPE SELECTIVE AMIDES OF DIAZABICYCLOALKANES” (Targacept, Inc., priority 2008, published 2011)

Target: T1, rat α4β2 nAChR subtype (Rattus norvegicus, UniProt P09483+P12390)
T1 construct: The cerebral cortex was removed and placed in 20 volumes (weight:volume) of ice-cold preparative buffer; from tissue; host or cells: rat cerebral cortex membranes (female Sprague-Dawley)
Assay: Radioligand binding, [3H]nicotine, rat cortex membranes
Conditions: [3H]nicotine 5 nM
Method: Preparation of Membranes from Rat Cortex: Rats (Female, Sprague-Dawley), weighing 150-250 g, were maintained on a 12 h light/dark cycle and were allowed free access to water and food supplied by PMI Nutrition International, Inc. Animals were anesthetized with 70% CO2, and then decapitated. Brains were removed and placed on an ice-cold platform. The cerebral cortex was removed and placed in 20 volumes (weight:volume) of ice-cold preparative buffer (137 mM NaCl, 10.7 mM KCl, 5.8 mM KH2PO4, 8 mM Na2HPO4, 20 mM HEPES (free acid), 5 mM iodoacetamide, 1.6 mM EDTA, pH 7.4); PMSF, dissolved in methanol to a final concentration of 100 μM, was added and the suspension was homogenized by Polytron. The homogenate was centrifuged at 18,000×g for 20 min at 4° C. and the resulting pellet was re-suspended in 20 volumes of ice-cold water. After 60 min incubation on ice, a new pellet was collected by centrifugation at 18,000×g for 20 min at 4° C. The final pellet was re-suspended in 10 volumes of buffer and stored at −20° C.
(§1) On the day of the assay, the frozen membranes were thawed and spun at 48,000×g for 20 min. The supernatant was decanted and discarded. The pellet was resuspended in Dulbecco's phosphate buffered saline (PBS, Life Technologies) pH 7.4 and homogenized with the Polytron for 6 seconds. Protein concentrations were determined using a Pierce BCA Protein Assay Kit, with bovine serum albumin as the standard (Pierce Chemical Company, Rockford, Ill.).
(§2) Membrane preparations (approximately 50 μg for human and 200-300 μg protein for rat α4β2) were incubated in PBS (50 μL and 100 μL respectively) in the presence of competitor compound (0.01 nM to 100 μM) and 5 nM [^3H]nicotine for 2-3 hours on ice. Incubation was terminated by rapid filtration on a multi-manifold tissue harvester (Brandel, Gaithersburg, Md.) using GF/B filters presoaked in 0.33% polyethyleneimine (w/v) to reduce non-specific binding. Tissue was rinsed 3 times in PBS, pH 7.4. Scintillation fluid was added to filters containing the washed tissue and allowed to equilibrate. Filters were then counted to determine radioactivity bound to the membranes by liquid scintillation counting (2200CA Tri-Carb LSC, Packard Instruments, 50% efficiency or Wallac Trilux 1450 MicroBeta, 40% efficiency, Perkin Elmer).
(§3) Data were expressed as disintegrations per minute (DPMs). Within each assay, each point had 2-3 replicates. The replicates for each point were averaged and plotted against the log of the drug concentration. IC50, which is the concentration of the compound that produces 50% inhibition of binding, was determined by least squares non-linear regression. Ki values were calculated using the Cheng-Prussof equation (1973): […]

T1 sequence (P09483 31-630): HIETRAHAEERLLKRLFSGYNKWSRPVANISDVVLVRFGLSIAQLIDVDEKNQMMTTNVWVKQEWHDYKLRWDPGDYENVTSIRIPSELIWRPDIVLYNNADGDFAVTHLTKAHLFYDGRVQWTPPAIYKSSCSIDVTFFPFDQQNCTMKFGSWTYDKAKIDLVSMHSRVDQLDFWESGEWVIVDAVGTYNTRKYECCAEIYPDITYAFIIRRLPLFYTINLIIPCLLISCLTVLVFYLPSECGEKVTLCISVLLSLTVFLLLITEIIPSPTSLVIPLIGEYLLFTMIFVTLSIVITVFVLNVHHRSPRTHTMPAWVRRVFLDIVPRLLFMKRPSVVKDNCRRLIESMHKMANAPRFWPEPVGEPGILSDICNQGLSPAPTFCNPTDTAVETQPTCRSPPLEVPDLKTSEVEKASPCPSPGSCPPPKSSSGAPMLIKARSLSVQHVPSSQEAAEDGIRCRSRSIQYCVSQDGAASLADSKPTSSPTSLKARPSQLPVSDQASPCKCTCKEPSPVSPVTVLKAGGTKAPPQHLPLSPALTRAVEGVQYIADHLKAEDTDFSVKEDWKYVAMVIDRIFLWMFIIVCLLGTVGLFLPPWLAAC
T1 sequence (P12390 25-500): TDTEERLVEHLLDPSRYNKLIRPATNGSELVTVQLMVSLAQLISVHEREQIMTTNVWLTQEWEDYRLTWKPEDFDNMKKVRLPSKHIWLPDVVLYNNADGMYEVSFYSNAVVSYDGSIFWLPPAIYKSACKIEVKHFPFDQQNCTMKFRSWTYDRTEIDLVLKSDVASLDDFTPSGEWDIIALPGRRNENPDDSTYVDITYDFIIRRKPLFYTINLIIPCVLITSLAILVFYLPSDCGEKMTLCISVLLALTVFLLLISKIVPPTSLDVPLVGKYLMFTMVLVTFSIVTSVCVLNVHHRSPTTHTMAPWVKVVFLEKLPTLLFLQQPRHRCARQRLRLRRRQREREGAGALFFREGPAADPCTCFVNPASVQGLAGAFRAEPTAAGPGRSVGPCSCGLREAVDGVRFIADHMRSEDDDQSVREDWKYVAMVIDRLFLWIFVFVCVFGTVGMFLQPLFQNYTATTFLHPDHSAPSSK

SMILES	Ki
COCCC(=O)N1CC2CNCC(C2)C1 [Example 10-62]	175 nM
CCC(=O)N1CC2CNCC(C2)C1 [Example 10-63]	12.1 nM
C/C=C/CC(=O)N1CC2CNCC(C2)C1 [Example 10-66]	30.1 nM
CCCC(=O)N1CC2CNCC(C2)C1 [Example 10-67]	8.1 nM
O=C(C1CC1(F)F)N1CC2CNCC(C2)C1 (stereo not drawn) [Example 10-68]	1.2 nM
CC1(C)CC1C(=O)N1CC2CNCC(C2)C1 (stereo not drawn) [Example 10-69]	1.5 nM
CC1(C(=O)N2CC3CNCC(C3)C2)CC1 [Example 10-70]	874 nM
CC1CC1C(=O)N1CC2CNCC(C2)C1 (stereo not drawn) [Example 10-71]	1.4 nM
O=C(N1CC2CNCC(C2)C1)C1(O)CC1 [Example 10-72]	75.9 nM
CC1(C)C(C(=O)N2CC3CNCC(C3)C2)C1(C)C [Example 10-73]	119 nM
N#CC1(C(=O)N2CC3CNCC(C3)C2)CC1 [Example 10-74]	4840 nM
O=C(C1CCC1)N1CC2CNCC(C2)C1 [Example 10-75]	1.6 nM
O=C(C1CC12CCC2)N1CC2CNCC(C2)C1 (stereo not drawn) [Example 10-76]	1.6 nM
O=C(C1CC=CC1)N1CC2CNCC(C2)C1 [Example 10-77]	25.6 nM
O=C([C@H]1C[C@H]1F)N1CC2CNCC(C2)C1 [Example 10-78]	2.9 nM
O=C([C@H]1C[C@@H]1F)N1CC2CNCC(C2)C1 [Example 10-79]	4.1 nM
O=C(CCF)N1CC2CNCC(C2)C1 [Example 10-80]	13.8 nM
CC(C)C(=O)N1CC2CNCC(C2)C1 [Example 10-81]	102 nM
O=C(C1CC(F)C1)N1CC2CNCC(C2)C1 (stereo not drawn) [Example 10-82]	1.4 nM

Target: T2, human α4β2 nAChR subtype (Homo sapiens, UniProt P17787+P43681)
T2 construct: expressed in transfected cells; host or cells: SH-EP1 clonal cells expressing human α4β2
Assay: Radioligand binding, [3H]nicotine, membranes from SH-EP1/human α4β2 clonal cells
Conditions: [3H]nicotine 5 nM, SH-EP1/human α4β2 cell membranes
Method: Preparation of membranes from SH-EP1/human α4β2 clonal cells: Cell pellets from 40 150 mm culture dishes were pooled, and homogenized by Polytron (Kinematica GmbH, Switzerland) in 20 milliliters of ice-cold preparative buffer. The homogenate was centrifuged at 48,000 g for 20 minutes at 4° C. The resulting pellet was re-suspended in 20 mL of ice-cold preparative buffer and stored at −20° C.
as §1, §2, §3

T2 sequence (P43681 29-627 limits assumed): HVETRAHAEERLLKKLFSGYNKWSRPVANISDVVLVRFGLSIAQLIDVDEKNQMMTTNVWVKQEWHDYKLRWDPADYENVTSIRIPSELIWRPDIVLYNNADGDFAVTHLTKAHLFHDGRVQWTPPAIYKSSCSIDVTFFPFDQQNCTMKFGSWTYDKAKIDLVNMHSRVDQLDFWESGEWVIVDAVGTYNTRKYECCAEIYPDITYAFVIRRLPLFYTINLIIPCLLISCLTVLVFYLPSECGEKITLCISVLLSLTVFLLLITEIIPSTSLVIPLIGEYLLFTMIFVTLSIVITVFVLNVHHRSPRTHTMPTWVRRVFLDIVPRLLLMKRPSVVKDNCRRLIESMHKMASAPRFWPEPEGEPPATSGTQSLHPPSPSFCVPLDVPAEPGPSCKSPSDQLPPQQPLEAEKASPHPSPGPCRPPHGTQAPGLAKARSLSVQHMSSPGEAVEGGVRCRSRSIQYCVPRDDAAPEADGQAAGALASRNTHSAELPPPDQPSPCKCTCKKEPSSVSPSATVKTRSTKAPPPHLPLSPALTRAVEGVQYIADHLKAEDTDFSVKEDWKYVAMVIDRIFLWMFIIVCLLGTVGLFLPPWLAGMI
T2 sequence (P17787 26-502): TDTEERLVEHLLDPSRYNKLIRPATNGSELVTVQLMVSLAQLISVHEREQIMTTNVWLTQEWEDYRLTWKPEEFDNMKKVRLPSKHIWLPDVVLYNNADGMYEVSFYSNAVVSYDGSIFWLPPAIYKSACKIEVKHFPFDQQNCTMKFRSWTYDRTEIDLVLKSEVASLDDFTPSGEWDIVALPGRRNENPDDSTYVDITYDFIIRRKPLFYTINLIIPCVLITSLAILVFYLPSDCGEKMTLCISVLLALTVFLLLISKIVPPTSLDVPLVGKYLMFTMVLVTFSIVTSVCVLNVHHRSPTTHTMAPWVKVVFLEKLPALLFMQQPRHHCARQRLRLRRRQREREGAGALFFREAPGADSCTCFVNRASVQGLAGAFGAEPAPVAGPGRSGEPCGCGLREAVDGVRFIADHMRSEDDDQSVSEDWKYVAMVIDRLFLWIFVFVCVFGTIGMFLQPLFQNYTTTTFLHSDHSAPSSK

SMILES	Ki
COCCC(=O)N1CC2CNCC(C2)C1 [Example 10-62]	127 nM
CCC(=O)N1CC2CNCC(C2)C1 [Example 10-63]	10.4 nM
C/C=C/CC(=O)N1CC2CNCC(C2)C1 [Example 10-66]	16.7 nM
CCCC(=O)N1CC2CNCC(C2)C1 [Example 10-67]	2.9 nM
O=C(C1CC1(F)F)N1CC2CNCC(C2)C1 (stereo not drawn) [Example 10-68]	1.1 nM
CC1(C)CC1C(=O)N1CC2CNCC(C2)C1 (stereo not drawn) [Example 10-69]	1 nM
CC1(C(=O)N2CC3CNCC(C3)C2)CC1 [Example 10-70]	214 nM
CC1CC1C(=O)N1CC2CNCC(C2)C1 (stereo not drawn) [Example 10-71]	1 nM
O=C(N1CC2CNCC(C2)C1)C1(O)CC1 [Example 10-72]	225 nM
CC1(C)C(C(=O)N2CC3CNCC(C3)C2)C1(C)C [Example 10-73]	28.2 nM
N#CC1(C(=O)N2CC3CNCC(C3)C2)CC1 [Example 10-74]	1340 nM
O=C(C1CCC1)N1CC2CNCC(C2)C1 [Example 10-75]	1.4 nM
O=C(C1CC12CCC2)N1CC2CNCC(C2)C1 (stereo not drawn) [Example 10-76]	1.1 nM
O=C(C1CC=CC1)N1CC2CNCC(C2)C1 [Example 10-77]	12.5 nM
O=C([C@H]1C[C@H]1F)N1CC2CNCC(C2)C1 [Example 10-78]	1.7 nM
O=C([C@H]1C[C@@H]1F)N1CC2CNCC(C2)C1 [Example 10-79]	2 nM
O=C(CCF)N1CC2CNCC(C2)C1 [Example 10-80]	9.5 nM
CC(C)C(=O)N1CC2CNCC(C2)C1 [Example 10-81]	44.4 nM
O=C(C1CC(F)C1)N1CC2CNCC(C2)C1 (stereo not drawn) [Example 10-82]	2.9 nM

Target: T3, α7 nAChR subtype (Rattus norvegicus, UniProt Q05941)
T3 construct: The hippocampus was removed and placed in 10 volumes (weight:volume) of ice-cold preparative buffer; from tissue; host or cells: rat hippocampus membranes (female Sprague-Dawley)
Assay: Radioligand binding, [3H]MLA, rat hippocampus membranes
Conditions: [3H]MLA 5 nM, rat hippocampus membranes; read-out: α7 Ki
Method: Rats (female, Sprague-Dawley), weighing 150-250 g, were maintained on a 12 h light/dark cycle and were allowed free access to water and food supplied by PMI Nutrition International, Inc. Animals were anesthetized with 70% CO2, then decapitated. Brains were removed and placed on an ice-cold platform. The hippocampus was removed and placed in 10 volumes (weight:volume) of ice-cold preparative buffer (137 mM NaCl, 10.7 mM KCl, 5.8 mM KH2PO4, 8 mM Na2HPO4, 20 mM HEPES (free acid), 5 mM iodoacetamide, 1.6 mM EDTA, pH 7.4); PMSF, dissolved in methanol to a final concentration of 100 μM, was added and the tissue suspension was homogenized by Polytron. The homogenate was centrifuged at 18,000×g for 20 min at 4° C. and the resulting pellet was re-suspended in 10 volumes of ice-cold water. After 60 min incubation on ice, a new pellet was collected by centrifugation at 18,000×g for 20 min at 4° C. The final pellet was re-suspended in 10 volumes of buffer and stored at −20° C. On the day of the assay, tissue was thawed, centrifuged at 18,000×g for 20 min, and then re-suspended in ice-cold PBS (Dulbecco's Phosphate Buffered Saline, 138 mM NaCl, 2.67 mM KCl, 1.47 mM KH2PO4, 8.1 mM Na2HPO4, 0.9 mM CaCl2, 0.5 mM MgCl2, Invitrogen/Gibco, pH 7.4) to a final concentration of approximately 2 mg protein/mL. Protein was determined by the method of Lowry et al., J. Biol. Chem. 193: 265 (1951), using bovine serum albumin as the standard.
The binding of [^3H]MLA was measured using a modification of the methods of Davies et al., Neuropharmacol. 38: 679 (1999). [^3H]MLA (Specific Activity=25-35 Ci/mmol) was obtained from Tocris. The binding of [^3H]MLA was determined using a 2 h incubation at 21° C. Incubations were conducted in 48-well micro-titre plates and contained about 200 μg of protein per well in a final incubation volume of 300 μL. The incubation buffer was PBS and the final concentration of [^3H]MLA was 5 nM. The binding reaction was terminated by filtration of the protein containing bound ligand onto glass fiber filters (GF/B, Brandel) using a Brandel Tissue Harvester at room temperature. Filters were soaked in de-ionized water containing 0.33% polyethyleneimine to reduce non-specific binding. Each filter was washed with PBS (3×1 mL) at room temperature. Non-specific binding was determined by inclusion of 50 μM non-radioactive MLA in selected wells.
The inhibition of [^3H]MLA binding by test compounds was determined by including seven different concentrations of the test compound in selected wells. Each concentration was replicated in triplicate. IC50 values were estimated as the concentration of compound that inhibited 50 percent of specific [^3H]MLA binding. Inhibition constants (Ki values), reported in nM, were calculated from the IC50 values using the method of Cheng et al., Biochem. Pharmacol. 22: 3099-3108 (1973).

T3 sequence (Q05941 23-502): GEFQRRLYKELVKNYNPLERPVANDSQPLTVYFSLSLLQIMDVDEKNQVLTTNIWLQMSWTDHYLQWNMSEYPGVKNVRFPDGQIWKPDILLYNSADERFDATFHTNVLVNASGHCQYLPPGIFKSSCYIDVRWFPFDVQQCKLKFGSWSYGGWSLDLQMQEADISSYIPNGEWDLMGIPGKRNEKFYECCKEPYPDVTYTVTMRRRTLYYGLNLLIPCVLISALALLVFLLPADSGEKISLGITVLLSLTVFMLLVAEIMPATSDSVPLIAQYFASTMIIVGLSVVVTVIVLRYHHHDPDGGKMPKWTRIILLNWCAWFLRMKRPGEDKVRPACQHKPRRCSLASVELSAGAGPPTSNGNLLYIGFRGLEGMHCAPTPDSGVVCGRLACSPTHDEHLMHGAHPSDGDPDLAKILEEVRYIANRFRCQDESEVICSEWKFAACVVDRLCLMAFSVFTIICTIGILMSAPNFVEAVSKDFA

SMILES	Ki
CCC(=O)N1CC2CNCC(C2)C1 [Example 10-63]	795 nM
CCCC(=O)N1CC2CNCC(C2)C1 [Example 10-67]	230 nM
O=C(C1CC1(F)F)N1CC2CNCC(C2)C1 (stereo not drawn) [Example 10-68]	142 nM
CC1(C)CC1C(=O)N1CC2CNCC(C2)C1 (stereo not drawn) [Example 10-69]	377 nM
CC1CC1C(=O)N1CC2CNCC(C2)C1 (stereo not drawn) [Example 10-71]	78.7 nM
O=C(C1CCC1)N1CC2CNCC(C2)C1 [Example 10-75]	70 nM
O=C(C1CC12CCC2)N1CC2CNCC(C2)C1 (stereo not drawn) [Example 10-76]	680 nM
O=C(C1CC=CC1)N1CC2CNCC(C2)C1 [Example 10-77]	54 nM
CC(C)C(=O)N1CC2CNCC(C2)C1 [Example 10-81]	645 nM
O=C(C1CC(F)C1)N1CC2CNCC(C2)C1 (stereo not drawn) [Example 10-82]	1040 nM

Same assay, conditions: read-out: α7 high through-put screening (HTS) result

SMILES	inhibition at 5 µM
COCCC(=O)N1CC2CNCC(C2)C1 [Example 10-62]	< 50%
C/C=C/CC(=O)N1CC2CNCC(C2)C1 [Example 10-66]	< 50%
CC1(C(=O)N2CC3CNCC(C3)C2)CC1 [Example 10-70]	< 50%
O=C(N1CC2CNCC(C2)C1)C1(O)CC1 [Example 10-72]	< 50%
CC1(C)C(C(=O)N2CC3CNCC(C3)C2)C1(C)C [Example 10-73]	< 50%
N#CC1(C(=O)N2CC3CNCC(C3)C2)CC1 [Example 10-74]	< 50%
O=C(CCF)N1CC2CNCC(C2)C1 [Example 10-80]	< 50%

Same assay, conditions: α7 Ki

SMILES	Ki
O=C([C@H]1C[C@H]1F)N1CC2CNCC(C2)C1 [Example 10-78]	397 nM
O=C([C@H]1C[C@@H]1F)N1CC2CNCC(C2)C1 [Example 10-79]	961 nM
